# Laboratory results reported in patent US6017958A, “Method of treating malignant tumors with thyroxine analogues having no significant hormonal activity” (Octamer, Inc., priority 1997, dated 2000).
# Read-outs that look alike come from different tables or passages of the source.
# Assays:
# MDA-MB-231 cells [1] = experiment: Immunocytochemistry of mitotic spindle and spindle-associated proteins; assay type: cell-based, human; details: 18 hrs
# Description: Cells were fixed in methanol at -20° C. for 5 min. The primary antibody was mouse monoclonal anti-beta tubulin (Amersham) and secondary antibody from goat, conjugated to fluorescein isothiocyanate from Cappel (Durham, N.C., USA). The DNA of nuclei was stained by 10 min of incubation in 0.05 μg/ml 4'-6-diamidono-2-phenylindole (DAPI). Stained cells were viewed with either a Zeiss 40xPlan-Neofluar or a Nikon 60xPlanApo objective. For classification of cells in the mitotic phase, prophase and metaphase were combined into a single category, because it was difficult to distinguish late prophase from metaphase.
# In preliminary studies (data not shown) we have also studied the behavior of certain spindle-associated proteins by the immunocytologic technique.
# MDA-MB-231 xenografts [2] = experiment: MDA-MB-231 xenograft growth in nude mice; assay type: in vivo, human tumor in nude mice; details: 250 mg/kg gavage, 5 days/week; control 979.0 ± 154; p = 0.01; in mm³ (unit assumed)
# Description: MDA-MB-231 (human mammary cancer) cells were obtained from American Type Culture Collection (Rockville, Md.) and maintained in the recommended growth media. Twenty nude mice were each inoculated subcutaneously with MDA-MB-231 cells (10^6 cells/100 μL). To one group of ten mice, DIME was administered by gavage (250 mg/kg, 10 mL/kg in corn oil) once per day, 5 days per week, for a total of 32 days. The other (control) group of ten mice was given administered vehicle only according to the same dosing schedule. Tumors were measured twice weekly using a Vernier caliper, and the mean tumor volume was determined at each time point. Comparisons between groups were made using an unpaired, two-tailed t-test and the results were analyzed using analysis of variance.
# Tumorigenicity of E-ras 20 Cells in athymic nude mice was assayed as described previously. Bauer et al., 1996, "Modification of growth related enzymatic pathways and apparent loss of tumorigenicity of a ras-transformed bovine endothelial cell line by treatment with 5-iodo-6-amino-1,2-benzopyrone (INH2 BP)" Intl. J. Oncol. 8:239-252. The in vivo antitumorigenic action of DIME was assayed on athymic mice inoculated with 10^6 MDA-MB-231 cells, as in the tumorgenicity assay. […]
# HT 144 (melanoma) = experiment: Cytocidal action/growth inhibition, HT 144; assay type: cell-based; details: Homo sapiens
# Description: (§1) Seven human cancer cell lines were obtained from the American Tissue Culture Collection (Rockville, Md.) and maintained in the recommended growth media. Cells were seeded into wells (2 cm^2) at a density of 2×10^4 cells/cm^2. Various concentrations of Compounds 1-13 were added to the media at the time of seeding.
# (§2) The cultures were incubated for 72 hours at 37° C. (5% CO2 atmosphere). Following incubation, cells were detached with trypsin and counted in a hemocytometer.
# (§3) I100 designates the concentration at which no viable cells remained; I50 the concentration at which 50% viable cells remained, as compared to a control.
# (§4) E-ras 20 cells were cultured as reported, Bauer et al., 1996, "Modification of growth related enzymatic pathways and apparent loss of tumorigenicity of a ras-transformed bovine endothelial cell line by treatment with 5-iodo-6-amino-1,2-benzopyrone (INH2 BP)" Intl. J. Oncol. 8:239-252; HT-144 (melanoma), DU-145 (prostatic cancer), HeLa (cervical cancer), HL 60 (promyelocytic leukemia), MDA-MB-231 (mammary cancer), SK-Br-3 (mammary cancer), T47D (ductal mammary cancer), A559 (lung cancer) were obtained from American Type Culture Collection (Rockville, Md.) and cultured in prescribed media. The effect of DIME was tested in cultures with a starting cell density of 2×10^4 cells per cm^2 and comparison of the effect of DIME on cell growth (intact cells identified by Trypan blue exclusion) was assayed by direct cell counting after trypsinization in a hemocytometer 72 hours after drug addition.
# For DIME-exposure experiments cells were seeded into 2 cm^2 wells at a density of 2×10^4 cells/cm^2. DIME at various concentrations was added to the medium at the time of seeding. The cell cultures were then incubated for 3 days (37° C. in 5% at CO2 atmosphere).
# MDA-MB-231 xenografts [3] = details: cited from earlier work
# [4] = test system: HL-60 (promyelocytic leukemia); experiment: Cytocidal action/growth inhibition, HL-60; assay type: cell-based; details: Homo sapiens, 72 h
# Description: as §1, §2, §3
# as §4, with “The effect of DIME was tested in cultures with a starting cell density of 2×10^4 cells per cm^2 and comparison of the effect of DIME on cell growth (intact cells identified by Trypan blue exclusion) was assayed by direct cell counting after trypsinization in a hemocytometer 72 hours after drug addition.” left out
# MDA-MB-231 cells [5] = experiment: cells; assay type: in vitro ADME; details: Homo sapiens; MDA-MB-231, 24 hours; read-out: Extracellular DIME (concentration that causes 100% growth inhibition)
# Description: (§5) Monolayer cultures in 9.6 cm^2 wells (3 ml medium) were exposed to [^14 C]-DIME (10.55 mCi/mmol) for 24 hours, then washed 7 times with 1 ml medium containing unlabeled DIME. The cells were dissolved in 1 ml of 4% Na2 CO3 and 0.2 M NaOH and radioactivity measured by scintillation counting. Cell volume was determined by hematocrit and cell counting from parallel wells treated with unlabeled DIME.
# (§6) A striking property of DIME is its apparent selectivity for tumors in vivo. We performed drug metabolism and cellular DIME uptake tests to further characterize this property. Incubation of cells in culture with [^14 DIME, under conditions described previously, Bauer et al., 1996, "Modification of growth related enzymatic pathways and apparent loss of tumorigenicity of a ras-transformed bovine endothelial cell line by treatment with 5-iodo-6-amino-1,2-benzopyrone (INH2 BP)" Intl. J. Oncol. […] As shown in Table 9 the tumorigenic transformed cells in general took up DIME more rapidly than nontransformed cells (CV-1) or cells that were less sensitive to killing-by DIME (e.g. E-ras 20). […] On the other hand homogenates of organs of normal mice actively metabolize (de-esterify) DIME as illustrated in Table 10.
# CV-1 cells = experiment: cells; assay type: in vitro ADME; details: Cercopithecidae; CV-1, 24 hours; read-out: Extracellular DIME (concentration that causes 100% growth inhibition)
# Description: as §5, §6
# CV-1-Transformed cells = experiment: cells; assay type: in vitro ADME; details: 24 hours, read-out: Extracellular DIME (concentration that causes 100% growth inhibition)
# Description: as §5, §6
smiles,measurement,setting,value
"COC(=O)c1cc(I)c(Oc2ccc(OC)cc2)c(I)c1 [Compound 1, Methyl 3,5-diiodo-4-(4'-methoxyphenoxy)benzoate]",mitotic spindle / tubulin distribution,MDA-MB-231 cells [1]; 1 μM,striking abnormalities of-tubulin distribution
same,Cyclin B-microtubule-spindle association,"MDA-MB-231 cells [1]; 1 μM, data not shown",remained unchanged
same,cdc-2 kinase-spindle binding,"MDA-MB-231 cells [1]; 1 μM, data not shown",induction of cdc-2-kinase-spindle binding
same,number of centrosomes,"MDA-MB-231 cells [1]; 1 μM, data not shown",unable to detect abnormal number of centrosomes
same,pericentrin staining pattern,"MDA-MB-231 cells [1]; 1 μM, data not shown",did not alter the pattern of staining
same,protein phosphatase 2a-spindle association,"MDA-MB-231 cells [1]; 1 μn (so in the source), data not shown",not influenced by drug-treatment
same,Tumor Volume Day 28 ± SEM,MDA-MB-231 xenografts [2],430 ± 85.6
same,IC50,"HT 144 (melanoma); HT-144, 72 h, day 3, Table 11, read-out: I50 (day 3)",0.5 µM
same,IC50,"HT 144 (melanoma); HT-144, 72 h, Table 4, read-out: I50",0.5 µM
same,IC100,"HT 144 (melanoma); HT-144, 72 h, Table 4, read-out: I100 (no viable cells remained)",4 µM
same,dose-response of antitumor effect,MDA-MB-231 xenografts [3]; 0.25 g/kg and 1.0 g/kg,had the same antitumor effect
same,tumor regression,"MDA-MB-231 xenografts [3]; 25-35 days, 0.25 to 1.0 g/kg daily per os, nude mice (Kun et al., 1996)",70-85%
same,IC50,"[4]; Table 4, read-out: I50",0.6 µM
same,IC100,"[4]; Table 4, read-out: I100 (no viable cells remained)",3 µM
same,IC100,MDA-MB-231 cells [5],2 µM
same,IC100,CV-1 cells,2 µM
same,IC100,CV-1-Transformed cells,2 µM
